Literature values as cited in patent US7022342B2, “Controlled release oral dosage form of beta-adrenergic blocking agents” (Andrx Corporation, Inc., priority 2002, dated 2006).

How the values were obtained:
[1] = after oral administration of the conventional tablets

CC(C)NCC(O)COc1cccc2ccccc12 (centres unmarked) [Propranolol]
solubility in water: freely soluble
time of peak plasma concentrations [1]: 60 to 90 min
